Values quoted from earlier work, collected in patent publication US20110313027A1, “METHODS AND SUBSTANCES FOR STIMULATING MUSCLE REGENERATION” (priority 2008, published 2011).

System: SERCAs
Conditions: cultured muscle cells

C/C=C(/C)C(=O)O[C@H]1C(C)=C2[C@H]([C@@H]1OC(=O)CCCCCCC)[C@@](C)(OC(C)=O)C[C@H](OC(=O)CCC)[C@@]1(O)[C@H]2OC(=O)[C@@]1(C)O [thapsigargin]
activity of an NFAT reporter construct: increased the activity | myotube growth and differentiation: decreases myotube growth and differentiation
